Consider 13 molecules from PubChem BioAssay (NCI).

Test systems include SF-268 CNS; IGROV1 ovarian; K-562 leukemia; OVCAR-8 ovarian; SN12C renal; OVCAR-3 ovarian; SW-620 colon; SR leukemia; A498 renal.
Holding throughout (experiment): NCI-60 cell line screen, 48 h

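Cells were grown in 96-well plates and exposed to each compound for 48 hours at five concentrations; endpoints were interpolated linearly between bracketing concentrations, or set to the highest concentration if not reached. GI50 is the concentration that inhibits growth by half. TGI: concentration producing complete growth inhibition.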 Some results are limits rather than exact numbers.

With `CCCCCCCC1(c2ccc(N)cc2)CCC(=O)NC1=O` (configuration not stated), the TGI is > 100 µM in the assay with SF-268 CNS; > 100 µM with IGROV1 ovarian; > 100 µM in the assay with K-562 leukemia; > 100 µM in the assay with OVCAR-8 ovarian; > 100 µM in the assay on SN12C renal; 81.1 µM with OVCAR-3 ovarian. The TGI in the assay on SW-620 colon is > 100 µM.
Consider `CC1OC(=O)C(O)=C1O` (configuration not stated), for which the TGI with SF-268 CNS, with IGROV1 ovarian, with K-562 leukemia, with OVCAR-8 ovarian, in the assay on SN12C renal and in the assay on OVCAR-3 ovarian was > 100 µM throughout. The TGI with SR leukemia and with SW-620 colon was > 100 µM each time.
For the molecule `Clc1ccc(-c2c3ccc(=[N+]4CCCCC4)cc-3oc3cc(N4CCCCC4)ccc23)cc1`, the GI50 in the assay on K-562 leukemia was 0.153 µM; in the assay on A498 renal it was 0.035 µM; with OVCAR-3 ovarian it was 0.132 µM. In addition, the TGI with K-562 leukemia came to 0.779 µM; in the assay with A498 renal, 0.15 µM; in the assay on OVCAR-3 ovarian it was 0.274 µM.
As to `O=C(O)CCNS(=O)(=O)c1ccc2ccccc2c1`, the TGI in the assay on SF-268 CNS, with IGROV1 ovarian, in the assay with K-562 leukemia, in the assay on A498 renal, in the assay with OVCAR-8 ovarian and in the assay on SN12C renal was > 100 µM throughout. Further, the TGI in the assay on OVCAR-3 ovarian and in the assay with SW-620 colon was > 100 µM in each case.
As to `N#CC(C(=O)CCCC(=O)Nc1ccc(Cl)cc1Cl)c1ccccc1` (configuration not stated), the TGI in the assay on SF-268 CNS, with IGROV1 ovarian, in the assay with K-562 leukemia, in the assay on OVCAR-8 ovarian, in the assay with SN12C renal and in the assay with OVCAR-3 ovarian was > 100 µM throughout. Besides, the TGI with SR leukemia and with SW-620 colon was > 100 µM throughout.
Consider `O=C(C(=O)n1ncc(Cl)c(Cl)c1=O)n1ncc(Cl)c(Cl)c1=O`, for which the TGI in the assay with SF-268 CNS is > 100 µM; in the assay on IGROV1 ovarian, > 77.3 µM; in the assay with K-562 leukemia it was > 100 µM; with A498 renal, > 100 µM; with OVCAR-8 ovarian it was > 59.9 µM; in the assay on SN12C renal, > 65.8 µM. In addition, the results for the TGI in the assay with OVCAR-3 ovarian and in the assay on SW-620 colon were 68.2 µM and 42.7 µM, respectively.
In the case of `COc1ccc2oc3c(OC)c(OC)c(OC)cc3c(=O)c2c1`, the TGI in the assay on SF-268 CNS, with IGROV1 ovarian, in the assay on K-562 leukemia, with A498 renal, in the assay with OVCAR-8 ovarian and in the assay with SN12C renal was > 100 µM throughout. Moreover, the TGI with SW-620 colon was > 100 µM.
As for `CCC(C)CC(C)CC(C)/C=C(\C)C1=C(C)CC(C)(O)O1` (configuration not stated), the TGI with IGROV1 ovarian, in the assay with K-562 leukemia, in the assay on A498 renal, with OVCAR-8 ovarian, in the assay with SN12C renal and in the assay with SW-620 colon was > 100 µM in each case.
Consider `CCOC(=O)c1cc(-c2ccc(-c3cc(C(=O)OCC)c(C#N)c(N)c3C#N)cc2)c(C#N)c(N)c1C#N`, for which the TGI in the assay on SF-268 CNS, with IGROV1 ovarian, in the assay on K-562 leukemia, in the assay on OVCAR-8 ovarian, with SN12C renal and in the assay with OVCAR-3 ovarian was > 100 µM each time. For the same molecule, the TGI in the assay on SR leukemia and in the assay on SW-620 colon was > 100 µM in each case.
As for `CCC[CH2][Sn]([CH2]CCC)([S]C#N)[S]C#N`, the GI50 is 0.802 µM in the assay with SF-268 CNS; 1.27 µM with IGROV1 ovarian; 0.215 µM in the assay with K-562 leukemia; 1.53 µM in the assay on OVCAR-8 ovarian; 1.18 µM in the assay with SN12C renal; 1.4 µM with OVCAR-3 ovarian. The GI50 with SR leukemia is 0.36 µM; in the assay with SW-620 colon, 0.378 µM. Also, the TGI came to 2.26 µM with SF-268 CNS; 2.78 µM in the assay with IGROV1 ovarian; 1.35 µM with K-562 leukemia; 3.54 µM in the assay with OVCAR-8 ovarian; 2.52 µM in the assay with SN12C renal; 2.7 µM in the assay on OVCAR-3 ovarian. Further, the TGI is 2.54 µM in the assay on SR leukemia and 1.54 µM in the assay with SW-620 colon.
As to `Cc1ccc2nc(NC(=O)C(=O)C(C#N)c3ccc(Cl)cc3)sc2c1` (configuration not stated), the TGI with SF-268 CNS, in the assay with IGROV1 ovarian, in the assay with OVCAR-8 ovarian, with SN12C renal, in the assay on OVCAR-3 ovarian and in the assay with SW-620 colon was > 50 µM each time.
For the molecule `COc1cc2c(c(OC)c1OC)-c1ccc(SC)c(=O)cc1[C@@H](NCc1ccc([N+](=O)[O-])cc1)CC2`, the TGI with IGROV1 ovarian was > 100 µM; in the assay with K-562 leukemia it was 37.5 µM; in the assay with A498 renal, 0.0531 µM; with SN12C renal, > 100 µM; with OVCAR-3 ovarian, 0.00965 µM; in the assay on SW-620 colon, > 100 µM.
In the case of `CC(C)c1cccc(C(C)C)c1N1C(=O)C(=O)C(c2nc3ccccc3o2)C(=O)C1=O`, the TGI in the assay on SF-268 CNS, with IGROV1 ovarian, in the assay on K-562 leukemia, in the assay on A498 renal, in the assay with OVCAR-8 ovarian and with SN12C renal was > 100 µM throughout. The TGI in the assay on OVCAR-3 ovarian and with SW-620 colon was > 100 µM throughout.
